Experimental data reported in PubChem BioAssay AID2060332 (Molecular Pharmacology Branch, DTP, NCI, 2025).

Tested on: LG0567-F671-PDC multi-cell spheroid viability
Test: Anticancer human tumor LG0567-F671-PDC patient-derived lung adenocarcinoma cell line growth inhibition [IpAb]
Conditions: for IC50: curve of first compound; for viability, T/C: stronger effect = lower value
How it was run: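 Multi-cell spheroids of 60% tumour cells, 25% HUVEC and 15% MSC in ultra-low-attachment U-bottom wells, treated with agents combined with ipatasertib or abemaciclib. Half-log ranges top out near clinical Cmax, or 10 microM when Cmax is unknown.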

[1] = second compound 0.1 µM, first compound 0.0316 µM
[2] = second compound 0.1 µM, first compound 0.1 µM
[3] = second compound 0.1 µM, first compound 0.316 µM
[4] = second compound 0.1 µM, first compound 1 µM
[5] = second compound 0.316 µM, first compound 0.0316 µM
[6] = second compound 0.316 µM, first compound 0.1 µM
[7] = second compound 0.316 µM, first compound 0.316 µM
[8] = second compound 0.316 µM, first compound 1 µM
[9] = second compound 1 µM, first compound 0.0316 µM
[10] = second compound 1 µM, first compound 0.1 µM
[11] = second compound 1 µM, first compound 0.316 µM
[12] = second compound 1 µM, first compound 1 µM
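Further: viability read after 7 days of drug exposure.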
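Wherever viability, T/C is given: 100% = DMSO vehicle control luminescence.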

`Cc1nc(NC(=O)N2CCCC2C(N)=O)sc1-c1ccnc(C(C)(C)C(F)(F)F)c1` (stereo not given) + CC(C)NCC(C(=O)N1CCN(c2ncnc3c2C(C)CC3O)CC1)c1ccc(Cl)cc1 gave an IC50 (second compound 0.1 µM) of 5190 nM, an IC50 (second compound 0.316 µM) of 924 nM and an IC50 (second compound 1 µM) of 257 nM. The IC50 (second compound 3.16 µM) was 341 nM, the IC50 (second compound 10 µM) was less than 31.6 nM and the viability, T/C [1] was 85.3%. The viability, T/C [2] was 86.2%, the viability, T/C [3] was 71% and the viability, T/C [4] was 42.8%. The viability, T/C (second compound 0.1 µM, first compound 3.16 µM) was 72%, the viability, T/C (second compound 0.1 µM, first compound 10 µM) was 39.7% and the viability, T/C [5] was 63.8%. The viability, T/C [6] was 72%, the viability, T/C [7] was 44.2% and the viability, T/C [8] was 56.8%. The viability, T/C (second compound 0.316 µM, first compound 3.16 µM) was 40.2%, the viability, T/C (second compound 0.316 µM, first compound 10 µM) was 35.9% and the viability, T/C [9] was 66.1%. The viability, T/C [10] was 68.2%, the viability, T/C [11] was 46.2% and the viability, T/C [12] was 34.2%. The viability, T/C (second compound 1 µM, first compound 3.16 µM) was 35.6%, the viability, T/C (second compound 1 µM, first compound 10 µM) was 29.8% and the viability, T/C (second compound 3.16 µM, first compound 0.0316 µM) was 56%. For the same molecule, the viability, T/C (second compound 3.16 µM, first compound 0.1 µM) was 50.9%, the viability, T/C (second compound 3.16 µM, first compound 0.316 µM) was 48.7% and the viability, T/C (second compound 3.16 µM, first compound 1 µM) was 44.5%. It also gave a viability, T/C (second compound 3.16 µM, first compound 3.16 µM) of 41.1%, a viability, T/C (second compound 3.16 µM, first compound 10 µM) of 21.4% and a viability, T/C (second compound 10 µM, first compound 0.0316 µM) of 50.5%. For the same molecule, the viability, T/C (second compound 10 µM, first compound 0.1 µM) was 53.1%, the viability, T/C (second compound 10 µM, first compound 0.316 µM) was 38.6% and the viability, T/C (second compound 10 µM, first compound 1 µM) was 46.2%. It also gave a viability, T/C (second compound 10 µM, first compound 3.16 µM) of 37.8% and a viability, T/C (second compound 10 µM, first compound 10 µM) of 25.8%.
In the case of `COc1c(OCCCN2CCOCC2)ccc2c3n(c(=NC(=O)c4cnc(N)nc4)nc12)CCN3` + CCN1CCN(Cc2ccc(Nc3ncc(F)c(-c4cc(F)c5nc(C)n(C(C)C)c5c4)n3)nc2)CC1, the IC50 (second compound 0.01 µM) is reported as 76.5 nM, the IC50 (second compound 0.0316 µM) is reported as 60.9 nM and the IC50 (second compound 0.1 µM) is reported as 60 nM. For the same molecule, the IC50 (second compound 0.316 µM) was 22.8 nM, the IC50 (second compound 1 µM) was 73.4 nM and the viability, T/C (second compound 0.01 µM, first compound 0.00316 µM) was 85.5%. It also gave a viability, T/C (second compound 0.01 µM, first compound 0.01 µM) of 72.7%, a viability, T/C (second compound 0.01 µM, first compound 0.0316 µM) of 77.5% and a viability, T/C (second compound 0.01 µM, first compound 0.1 µM) of 41.6%. It also gave a viability, T/C (second compound 0.01 µM, first compound 0.316 µM) of 36.5%, a viability, T/C (second compound 0.01 µM, first compound 1 µM) of 31.8% and a viability, T/C (second compound 0.0316 µM, first compound 0.00316 µM) of 105%. The viability, T/C (second compound 0.0316 µM, first compound 0.01 µM) was 74.6%, the viability, T/C (second compound 0.0316 µM, first compound 0.0316 µM) was 60.5% and the viability, T/C (second compound 0.0316 µM, first compound 0.1 µM) was 43.1%. The viability, T/C (second compound 0.0316 µM, first compound 0.316 µM) was 34.5%, the viability, T/C (second compound 0.0316 µM, first compound 1 µM) was 17.6% and the viability, T/C (second compound 0.1 µM, first compound 0.00316 µM) was 73%. For the same molecule, the viability, T/C (second compound 0.1 µM, first compound 0.01 µM) was 63.4%, the viability, T/C [1] was 62.5% and the viability, T/C [2] was 40.4%. It also gave a viability, T/C [3] of 32.5%, a viability, T/C [4] of 26.6% and a viability, T/C (second compound 0.316 µM, first compound 0.00316 µM) of 67.8%. For the same molecule, the viability, T/C (second compound 0.316 µM, first compound 0.01 µM) was 74.2%, the viability, T/C [5] was 41.6% and the viability, T/C [6] was 33.2%. For the same molecule, the viability, T/C [7] was 31.5%, the viability, T/C [8] was 20.5% and the viability, T/C (second compound 1 µM, first compound 0.00316 µM) was 69.7%. For the same molecule, the viability, T/C (second compound 1 µM, first compound 0.01 µM) was 71.1%, the viability, T/C [9] was 56% and the viability, T/C [10] was 43.2%. It also gave a viability, T/C [11] of 40.8% and a viability, T/C [12] of 25.1%.
